What was measured:
Type in all cases: cell-based
Conditions in all cases: Hepatitis C virus
[1] = test system: GT4a-ED43 replicon; assay: Stable replicon assay, comparison to daclatasvir, GT4a-ED43
Excerpt: The GT3a-S52 replicon plasmid pSGRlucneo-GT3a-S52-HDVR-(ISH) was synthesized by Genscript. This plasmid encodes a GT3a (strain S52, accession GU814264) bicistronic subgenomic replicon encoding the hRluc-Neo reporter gene in the first cistron and NS3-NS5B, driven by an encephalomyocarditis virus (EMCV) internal ribosome entry site (IRES), in the second cistron. The hepatitis delta ribozyme (HDVR) was included after the HCV 3′ NTR followed by a unique SpeI restriction site for linearization. This replicon encodes three cell culture adaptive mutations, P1226S (NS3), D1437H (NS3), and S2210I (NS5A), as described previously (Saeed et al 2012 Antimicrob. Agents Chemother. 54: 1878-1887). The GT4a-ED43 replicon plasmid pSGRlucneo-GT4a-ED43-HDVR-(KG) was synthesized by Genscript. […]
Stable HCV replicon cell lines were grown in complete media (Dulbecco's modified Eagle medium [DMEM], 2 mM L-glutamine, 0.1 mM essential amino acids, 1 mM sodium pyruvate, 10% fetal bovine serum) with the addition 500 μg/ml […] (G418). […] For stable and transient replicon assays, luciferase activity of compound-treated cells was measured relative to DMSO-treated cells after 72 h incubation using RENILLA-GLO™ Luciferase Assay (Promega). […]

[2] = test system: HCV genotype 1a replicon, NS5A K24E; assay: Transient replication assay, GT1a NS5A K24E
[3] = test system: HCV genotype 1a replicon, NS5A K24R; assay: Transient replication assay, GT1a NS5A K24R
[4] = test system: HCV genotype 1a replicon, NS5A P32L; assay: Transient replication assay, GT1a NS5A P32L
[5] = test system: HCV genotype 1a replicon, NS5A Y93N; assay: Transient replication assay, GT1a NS5A Y93N

| SMILES | EC50 [1] [nM] | EC50 [2] [nM] | EC50 [3] [nM] | EC50 [4] [nM] | EC50 [5] [nM] |
| --- | --- | --- | --- | --- | --- |
| COC(=O)N[C@H](C(=O)N1C[C@]2(CCCOC2)C[C@H]1c1ncc(-c2ccc(-c3ccc4c(ccc5nc([C@@H]6C[C@@H]7CCC[C@@H]7N6C(=O)[C@@H](NC(=O)OC)C(C)C)[nH]c54)c3)cc2)[nH]1)C(C)C [Compound 16] | 0.011 | 0.0013 | 0.0012 | 0.046 | 19 |
| COC(=O)N[C@H](C(=O)N1CCC[C@H]1c1nc(-c2ccc(-c3ccc(-c4c[nH]c([C@@H]5CCCN5C(=O)[C@@H](NC(=O)OC)C(C)C)n4)cc3)cc2)c[nH]1)C(C)C [Daclatasvir, reference compound] | 0.025 | 0.0022 | 0.011 | 1.9 | 119 |

— patent publication US10407445B2, “Hepatitis C virus inhibitors” (ENANTA PHARMACEUTICALS, INC., priority 2013, dated 2019)
